For experiment [1], the system named is gram negative/gram positive bacteria. Description: Synergistic effect of soap ingredients with/without Carvacrol. Type of experiment: cell-based. The conditions noted are these: for Efficacy against gram negative/gram positive bacteria: bacterial growth inhibition, ingredients with/without Carvacrol; for Synergistic effect: synergism with the Carvacrol.
Protocol: Main ingredients of NMP free V100, (2-Phenoxyethanol, Caprylyl glycol and Hexylene Glycol) were analyzed with/without Carvacrol.
The test system is the same in experiment [2]. The experiment in a line: Synergistic effect of soap ingredients with/without Oregano Oil. Type of experiment: cell-based. To be noted: for Efficacy against gram negative/gram positive bacteria: inhibition, ingredients with/without Oregano Oil; for Synergistic effect: synergism with Oregano Oil. Here is the method: Main ingredients of NMP free V100, 2-Phenoxyethanol, Caprylyl glycol and Hexylene Glycol were analyzed in the concentrations that they appear in the Hydromer Antiseptic Soap with/without Oregano Oil.

The values below come from patent US9474701B2, “Antimicrobial soaps containing carvacrol and methods of using same” (Hydromer, Inc., priority 2014, dated 2016).

`Cc1ccc(C(C)C)cc1O` [0.2% Carvacrol, Carvacrol]: the “Efficacy against gram negative/gram positive bacteria” value in experiment [1] was “NO Inhibition”.

As to `CCCCCCC(O)CO` (centres unmarked) [0.02% Caprylyl Glycol, Caprylyl Glycol], in experiment [1], the “Efficacy against gram negative/gram positive bacteria” value was “NO Inhibition” and the Synergistic effect result is “act synergistically”. Further, in experiment [2], the “Efficacy against gram negative/gram positive bacteria” value was “NO Inhibition” and the Synergistic effect result is recorded as “act synergistically”.

As for `OCCOc1ccccc1` [0.035% 2-Phenoxyethanol, 2-Phenoxyethanol], the “Efficacy against gram negative/gram positive bacteria” value in experiment [1] and in experiment [2] was “NO Inhibition” throughout. Further, the Synergistic effect result in experiment [1] and in experiment [2] was “act synergistically” in each case.

In the case of “Hexylene Glycol [0.008% Hexylene Glycol]”, the “Efficacy against gram negative/gram positive bacteria” value in experiment [1] and in experiment [2] was “NO Inhibition” throughout.
